Reference: patent publication US20150193597A1, “PHARMACEUTICAL PRODUCT AND COMMUNICATION TOOL” (priority 2012, published 2015)

How the values were obtained:
[1] = Study 3: Lyrica combination product in generalized anxiety disorder (GAD), perceived symptoms, side effects, quality of life, adherence; conditions: Patient 3 (only PP); for Anxiety Daytime / Anxiety Evening/Night / Fatigue / Muscle tension Daytime / Muscle tension Evening/Night: average VAS 0-10; for Dizziness / Dry month / Nausea: frequency of Yes answers; for Quality of Life: average VAS 0-10, 10 = Extremely good
Description: Three patients participated in the study, where two of them were given the combination product, A+B, and the third was given the PP, A. All three patients were using an evaluation tool in order to capture the continuous data concerning their current health situation. Prior to entering the study none of the patients had used either the PP or the CPP.
Length of study: 2 months.
The two patients using the combination product were evaluated against the one patient using only the PP and being treated according to ordinary health care in Sweden.
Due to the specific and profound study objectives, detailed outcome and behavior during the study period from the patients were evaluated against each other. The measurements of the patient outcomes were evaluated for each patient in different time phases during the treatment period.
In order to measure the appropriate patient outcome, the patients were continuously followed-up. […] The used QFM for the patients in the intervention group, patient 1 and 2: • 1. Set of questions. • 2. Set of functions generating individual and patient specific feedback information. • 3. Feedback based upon the individual patient specific feedback information.
The used set of questions for the patient in the control group, patient 3: • 1. Set of questions similar to the intervention group in order to capture patient reported outcome data • 2. No set of functions. • 3. No feedback information or feedback.
The measured variables (see table 19) were symptom and side effect levels which were perceived estimates by each patient at every measure point. The change in levels of symptoms and side effects between different measured times were used for comparisons. Symptoms and side effects are many times closely related in GAD. In this study anxiety, fatigue, and muscle tension were defined as symptoms while dizziness, nausea, and dry mouth were considered as side effects. This study focused on the overall clinical effect and patient safety aspects therefore it was not crucial to the results if a measured variable could have been defined differently.

[2] = test period when patient was only taking Metformin (two months)
Description: Follow-up variables: HbA1c • c. Period of time using the combination product: Three months. • d. Period of time using only the pharmaceutical, i.e. no combination product, prior to the period of using the combination product: Two months
Metformin was the following: • Adherence to Metformin: • The patient was asked to answer a question whether or not he/she had been adherent to Metformin, and which dose the patient took; “I have taken my Metformin today with the daily dose of 500 mg/1000 mg/1500 mg/2000 mg/2500 mg or 3000 mg”. • Physical activity: • The patient was asked to continuously answer a question like the following: “I have been exercising the following number of minutes today: [number]”. • Weight/BMI: • The patient was asked to answer a question regarding his/her actual weight. • Blood glucose: • The patient was asked to register his/her measured blood glucose, when he/she had measured it. It was possible for the patient to change or update already registered answers. • HbA1c: • The patient was asked to register his/her HbA1c after it had been measured at a clinic. • A possible adverse event for Metformin: • “Have you experienced unexpected loss of weight, severe nausea or vomiting (malaise), uncontrolled sudden pain when breathing or abdominal? […] Extremely much versus Nothing at all” according to a VAS structure

[3] = test period when patient only was taking Zoloft (two months)
Description: Test objectives; improve cardiovascular and diabetes symptoms through an increased well-being from improved adherence to Zoloft, initiating primarily an improved level of physical activity • b. Follow-up variables: Weight and HbA1c • c. Period of time using the combination product: Five months. • d. Period of time using only the pharmaceutical, i.e. no combination product, prior to the period of using the combination product: Two months • e. Period of time using only the software application, after the period of using the combination product: Two weeks
The individual goal was set-up by the patient by answering the following question: “Give your own personal goal for the physical activity in number of minutes for one week”. • The patient was then asked to continuously answer a question like the following: “I have been exercising the following number of minutes today: [number]”. • Weight/BMI: • The patient was asked to answer a question regarding his/her actual weight. • Depression and Anxiety, respectively: • The patient was asked to register the actual level of perceived depression respectively actual level of perceived anxiety at predefined occasions every second day. It was also possible for the patient to answer the question when he/she wanted. […]

CC(C)C[C@H](CN)CC(=O)O [A, pregabalin]
Anxiety Daytime ([1]; 1st phase): 3.5
Anxiety Evening/Night ([1]; 1st phase): 2.8
Fatigue ([1]; 1st phase): 5.4
Muscle tension Daytime ([1]; 1st phase): 6.3
Muscle tension Evening/Night ([1]; 1st phase): 3.9
Dizziness ([1]; 1st phase): 13%
Dry month ([1]; 1st phase): 0%
Nausea ([1]; 1st phase): 38%
Anxiety Daytime ([1]; 2nd phase): 3.0
Anxiety Evening/Night ([1]; 2nd phase): 2.9
Fatigue ([1]; 2nd phase): 5.0
Muscle tension Daytime ([1]; 2nd phase): 7.8
Muscle tension Evening/Night ([1]; 2nd phase): 7.4
Dizziness ([1]; 2nd phase): 0%
Dry month ([1]; 2nd phase): 0%
Nausea ([1]; 2nd phase): 11%
Anxiety Daytime, Change ([1]; 2nd vs 1st phase): −0.5
Anxiety Evening/Night, Change ([1]; 2nd vs 1st phase): 0.1
Dizziness, Change ([1]; 2nd vs 1st phase): −13 p.p.
Dry month, Change ([1]; 2nd vs 1st phase): 0 p.p.
Fatigue, Change ([1]; 2nd vs 1st phase): −0.4
Muscle tension Daytime, Change ([1]; 2nd vs 1st phase): 1.5
Muscle tension Evening/Night, Change ([1]; 2nd vs 1st phase): 5.5
Nausea, Change ([1]; 2nd vs 1st phase): −27 p.p.
Anxiety Daytime ([1]; 3rd phase): 1.9
Anxiety Evening/Night ([1]; 3rd phase): 1.8
Fatigue ([1]; 3rd phase): 5.1
Muscle tension Daytime ([1]; 3rd phase): 7.1
Muscle tension Evening/Night ([1]; 3rd phase): 7.2
Dizziness ([1]; 3rd phase): 0%
Dry month ([1]; 3rd phase): 0%
Nausea ([1]; 3rd phase): 0%
Anxiety Daytime, Change ([1]; 3rd vs 2nd phase): −1.1
Anxiety Evening/Night, Change ([1]; 3rd vs 2nd phase): −1.1
Dizziness, Change ([1]; 3rd vs 2nd phase): 0 p.p.
Dry month, Change ([1]; 3rd vs 2nd phase): 0 p.p.
Fatigue, Change ([1]; 3rd vs 2nd phase): 0.1
Muscle tension Daytime, Change ([1]; 3rd vs 2nd phase): −0.7
Muscle tension Evening/Night, Change ([1]; 3rd vs 2nd phase): −0.3
Nausea, Change ([1]; 3rd vs 2nd phase): −11 p.p.
Anxiety Daytime ([1]; End period): 2.0
Anxiety Evening/Night ([1]; End period): 2.5
Fatigue ([1]; End period): 4.8
Muscle tension Daytime ([1]; End period): 7.3
Muscle tension Evening/Night ([1]; End period): 7.4
Quality of Life ([1]; End period): 2.5
Dizziness ([1]; End period): 0%
Dry month ([1]; End period): 0%
Nausea ([1]; End period): 0%
Anxiety Daytime, Change ([1]; End vs Start period): −1.8
Anxiety Evening/Night, Change ([1]; End vs Start period): 0.1
Dizziness, Change ([1]; End vs Start period): −13 p.p.
Dry month, Change ([1]; End vs Start period): 0 p.p.
Fatigue, Change ([1]; End vs Start period): −0.8
Muscle tension Daytime, Change ([1]; End vs Start period): 1.4
Muscle tension Evening/Night, Change ([1]; End vs Start period): 4.0
Nausea, Change ([1]; End vs Start period): −38 p.p.
Quality of Life, Change ([1]; End vs Start period): 0.5
Anxiety Daytime ([1]; Start period): 3.8
Anxiety Evening/Night ([1]; Start period): 2.4
Fatigue ([1]; Start period): 5.6
Muscle tension Daytime ([1]; Start period): 5.9
Muscle tension Evening/Night ([1]; Start period): 3.4
Quality of Life ([1]; Start period): 2.0
Dizziness ([1]; Start period): 13%
Dry month ([1]; Start period): 0%
Nausea ([1]; Start period): 38%

CN(C)C(=N)N=C(N)N [Metformin]
increase of HbA1c [2]: 7%

CN[C@H]1CC[C@@H](c2ccc(Cl)c(Cl)c2)c2ccccc21 [Zoloft, Sertralin]
HbA1c course [3]: remained stable or slightly increased
weight gain [3]: 1-2%
